# Experimental data as given in article PMC12790360, “Characterization of Non‐Specific Electrostatic Interactions of Cationic Peptides with DNA Origami and Their Functional Consequences” (Small Methods, 2025).
# Ends that are not written are not given here. Peptide text beside a SMILES is read from it.
# System: ssDNA
# Assay: Centrifugation-based pull-down (solubility) assay
# Format: physicochemical
# Conditions: not given
# Description: Next, to quantify the propensity of these peptides to induce the aggregation, we developed a centrifugation‐based pull‐down assay (Figure 1e). In this assay, the cationic peptide pulls down the interacting BCN‐free ssDNA, forming large macromolecular aggregates that are sedimented as a pellet. The amount of ssDNA remaining in the soluble supernatant is then determined by measuring its absorbance at 260 nm.^[ [40], [41] ^] […] The soluble fraction for both peptides increased as the NaCl concentration was raised, confirming that the aggregation is driven by electrostatic interactions. […] To determine the soluble fraction of ssDNA after mixing with peptides, the mixtures were prepared as described above and then centrifuged at 16 000 × g for 5 min at room temperature. The supernatants were carefully collected, and the ssDNA concentration was measured by absorbance at 260 nm (OD260) on a NanoDrop spectrophotometer. The soluble fraction was calculated as OD260,supernatant/OD260,initial, where OD260,initial corresponds to the absorbance of the ssDNA reference solution (0.07 mM in 1× TE buffer without peptide or salt).
row,Molecule,Soluble ssDNA fraction in supernatant after centrifugation with peptide
1,EQLESIINFEKLTEWT [AP2],highly soluble across all conditions
2,ISQAVHAAHAEINEAGR [AP3],weaker aggregation tendencies compared with CP1 and CP2

# Same assay, conditions: BCN-free ssDNA 0.07 mM in 1x TE, tenfold molar excess peptide, varying NaCl, 16 000 x g 5 min room temperature, OD260 supernatant/initial, n = 3
row,Molecule,Soluble ssDNA fraction in supernatant after centrifugation with peptide
1,CC[C@H](C)[C@H](NC(=O)[C@H](CCCCN)NC(=O)[C@H](CCC(N)=O)NC(=O)[C@H](CC(N)=O)NC(=O)[C@H](CS)NC(=O)[C@H](C)NC(=O)[C@H](C)NC(=O)CNC(=O)[C@H](CCCNC(=N)N)NC(=O)[C@H](Cc1c[nH]c2ccccc12)NC(=O)CNC(=O)[C@@H]1CCCN1C(=O)[C@H](CCCNC(=N)N)NC(=O)[C@@H](N)CS)C(=O)N[C@@H](CC(C)C)C(=O)O [CP4] (H-CRPGWRGAACNQKIL-OH),highly soluble across all conditions
2,CC[C@H](C)[C@H](NC(=O)[C@@H](NC(=O)[C@H](CC(C)C)NC(=O)[C@H](CO)NC(=O)[C@H](Cc1c[nH]cn1)NC(=O)[C@@H](NC(=O)[C@@H](NC(=O)CNC(=O)[C@H](Cc1c[nH]cn1)NC(=O)[C@H](CCCNC(=N)N)NC(=O)[C@H](CCCNC(=N)N)NC(=O)[C@H](CCSC)NC(=O)[C@H](CCC(=O)O)NC(=O)[C@H](Cc1ccc(O)cc1)NC(=O)[C@H](CCCCN)NC(=O)[C@H](CC(N)=O)NC(=O)CNC(=O)[C@@H]1CCCN1C(=O)[C@H](CS)NC(=O)[C@H](CC(C)C)NC(=O)[C@H](CCC(=O)O)NC(=O)[C@@H](NC(=O)CNC(=O)[C@H](CCC(=O)O)NC(=O)[C@@H](N)CCCNC(=N)N)C(C)C)[C@@H](C)O)[C@@H](C)O)C(C)C)C(=O)N[C@@H](Cc1c[nH]cn1)C(=O)N[C@@H](CC(=O)O)C(=O)O [NP1],weaker aggregation tendencies compared with CP1 and CP2
3,GGGSEEEYRSRKYSSWYVALKR [CP2],salt‐dependent solubility
4,KLTWQELYQLKYKGI [CP6],weaker aggregation tendencies compared with CP1 and CP2
5,"PKKKR [CP5, brain-derived neurotrophic factor (BDNF) mimic peptide, cyclic, cationic, net charge +3]",weaker aggregation tendencies compared with CP1 and CP2
6,RGIDKRHWNSQ [CP3],weaker aggregation tendencies compared with CP1 and CP2
7,SSSHPIFHRGEFSV [NP5],weaker aggregation tendencies compared with CP1 and CP2
8,YRSRKYSSWYVALKR [CP1],salt‐dependent solubility
